Measured values taken from PubChem BioAssay (NCI).
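Results reflect a 48-hour exposure of cells in 96-well plates to compound at five concentrations. GI50 is the concentration that inhibits growth by half. Definition used: TGI = concentration required for complete inhibition of growth.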

How the values were obtained:
Assay in all cases: DTP human tumour cell line panel, 48 h
786-0 renal = system: 786-0 renal
A498 renal = system: A498 renal
A549 NSCLC = system: A549 NSCLC
ACHN renal = system: ACHN renal
BT-549 breast = system: BT-549 breast
CAKI-1 renal = system: CAKI-1 renal
CCRF-CEM leukemia = system: CCRF-CEM leukemia
COLO 205 colon = system: COLO 205 colon
DU-145 prostate = system: DU-145 prostate
EKVX NSCLC = system: EKVX NSCLC
HCC-2998 colon = system: HCC-2998 colon
HCT-116 colon = system: HCT-116 colon
HCT-15 colon = system: HCT-15 colon
HL-60(TB) leukemia = system: HL-60(TB) leukemia
HOP-62 NSCLC = system: HOP-62 NSCLC
HOP-92 NSCLC = system: HOP-92 NSCLC
HS 578T breast = system: HS 578T breast
HT29 colon = system: HT29 colon
IGROV1 ovarian = system: IGROV1 ovarian
K-562 leukemia = system: K-562 leukemia
KM12 colon = system: KM12 colon
LOX IMVI melanoma = system: LOX IMVI melanoma
M14 melanoma = system: M14 melanoma
MALME-3M melanoma = system: MALME-3M melanoma
MCF7 breast = system: MCF7 breast
MDA-MB-231 breast = system: MDA-MB-231 breast
MDA-MB-435 = system: MDA-MB-435
MDA-MB-468 breast = system: MDA-MB-468 breast
MOLT-4 leukemia = system: MOLT-4 leukemia
NCI-H226 lung = system: NCI-H226 lung
NCI-H23 lung = system: NCI-H23 lung
NCI-H460 lung = system: NCI-H460 lung
NCI-H522 lung = system: NCI-H522 lung
NCI/ADR-RES ovarian = system: NCI/ADR-RES ovarian
OVCAR-3 ovarian = system: OVCAR-3 ovarian
OVCAR-4 ovarian = system: OVCAR-4 ovarian
OVCAR-5 ovarian = system: OVCAR-5 ovarian
OVCAR-8 ovarian = system: OVCAR-8 ovarian
PC-3 prostate = system: PC-3 prostate
RPMI-8226 leukemia = system: RPMI-8226 leukemia
RXF 393 renal = system: RXF 393 renal
SF-268 CNS = system: SF-268 CNS
SF-295 CNS = system: SF-295 CNS
SF-539 CNS = system: SF-539 CNS
SK-MEL-2 melanoma = system: SK-MEL-2 melanoma
SK-MEL-28 melanoma = system: SK-MEL-28 melanoma
SK-MEL-5 melanoma = system: SK-MEL-5 melanoma
SK-OV-3 ovarian = system: SK-OV-3 ovarian
SN12C renal = system: SN12C renal
SNB-19 CNS = system: SNB-19 CNS
SNB-75 CNS = system: SNB-75 CNS
SR leukemia = system: SR leukemia
SW-620 colon = system: SW-620 colon
T-47D breast = system: T-47D breast
TK-10 renal = system: TK-10 renal
U251 CNS = system: U251 CNS
UACC-257 melanoma = system: UACC-257 melanoma
UACC-62 melanoma = system: UACC-62 melanoma
UO-31 renal = system: UO-31 renal

`CN(CCO)c1oc(-c2ccccc2)nc1[P+](c1ccccc1)(c1ccccc1)c1ccccc1` gave a GI50 (786-0 renal) of 5.31 µM, a TGI (786-0 renal) of 20.8 µM and a GI50 (A498 renal) of 6.82 µM. For the same compound, the TGI (A498 renal) was 22.8 µM, the GI50 (A549 NSCLC) was 5.22 µM and the TGI (A549 NSCLC) was 34.6 µM. It also gave a GI50 (ACHN renal) of 8.36 µM, a TGI (ACHN renal) of 41.6 µM and a GI50 (BT-549 breast) of 1.78 µM. For the same compound, the TGI (BT-549 breast) was 7.08 µM, the GI50 (CAKI-1 renal) was 4 µM and the TGI (CAKI-1 renal) was 24.9 µM. For the same compound, the GI50 (CCRF-CEM leukemia) was 2.39 µM, the TGI (CCRF-CEM leukemia) was 12.2 µM and the GI50 (COLO 205 colon) was 1.46 µM. It also gave a TGI (COLO 205 colon) of 3.28 µM, a GI50 (DU-145 prostate) of 3.26 µM and a TGI (DU-145 prostate) of 13.7 µM. It also gave a GI50 (EKVX NSCLC) of 2.35 µM, a TGI (EKVX NSCLC) of 13.4 µM and a GI50 (HCC-2998 colon) of 1.82 µM. It also gave a TGI (HCC-2998 colon) of 12.4 µM, a GI50 (HCT-116 colon) of 2.84 µM and a TGI (HCT-116 colon) of 12 µM. It also gave a GI50 (HCT-15 colon) of 13.5 µM, a TGI (HCT-15 colon) of 31.2 µM and a GI50 (HL-60(TB) leukemia) of 0.535 µM. For the same compound, the TGI (HL-60(TB) leukemia) was 2.73 µM, the GI50 (HOP-62 NSCLC) was 3.49 µM and the TGI (HOP-62 NSCLC) was 13 µM. For the same compound, the GI50 (HOP-92 NSCLC) was 1.22 µM, the TGI (HOP-92 NSCLC) was 4.9 µM and the GI50 (HS 578T breast) was 2.39 µM. It also gave a TGI (HS 578T breast) of 9.08 µM, a GI50 (HT29 colon) of 2.82 µM and a TGI (HT29 colon) of 21.2 µM. The GI50 (IGROV1 ovarian) was 0.802 µM, the TGI (IGROV1 ovarian) was 7.45 µM and the GI50 (K-562 leukemia) was 1.01 µM. For the same compound, the TGI (K-562 leukemia) was 13.6 µM, the GI50 (KM12 colon) was 2.12 µM and the TGI (KM12 colon) was 10.2 µM. For the same compound, the GI50 (LOX IMVI melanoma) was 2.21 µM, the TGI (LOX IMVI melanoma) was 10.1 µM and the GI50 (M14 melanoma) was 2.81 µM. For the same compound, the TGI (M14 melanoma) was 12.4 µM, the GI50 (MALME-3M melanoma) was 1.6 µM and the TGI (MALME-3M melanoma) was 9.14 µM. For the same compound, the GI50 (MCF7 breast) was 1.21 µM, the TGI (MCF7 breast) was 6.84 µM and the GI50 (MDA-MB-231 breast) was 1.36 µM. For the same compound, the TGI (MDA-MB-231 breast) was 4.18 µM, the GI50 (MDA-MB-435) was 1.6 µM and the TGI (MDA-MB-435) was 9.66 µM. For the same compound, the GI50 (MDA-MB-468 breast) was 0.285 µM, the TGI (MDA-MB-468 breast) was 1.37 µM and the GI50 (MOLT-4 leukemia) was 2.77 µM. For the same compound, the TGI (MOLT-4 leukemia) was 11.8 µM, the GI50 (NCI-H226 lung) was 2.73 µM and the TGI (NCI-H226 lung) was 10.9 µM. For the same compound, the GI50 (NCI-H23 lung) was 2.27 µM, the TGI (NCI-H23 lung) was 7.25 µM and the GI50 (NCI-H460 lung) was 2.74 µM. It also gave a TGI (NCI-H460 lung) of 12.4 µM, a GI50 (NCI-H522 lung) of 0.854 µM and a TGI (NCI-H522 lung) of 4.05 µM. For the same compound, the GI50 (NCI/ADR-RES ovarian) was over 100 µM, the TGI (NCI/ADR-RES ovarian) was over 100 µM and the GI50 (OVCAR-3 ovarian) was 1.08 µM. The TGI (OVCAR-3 ovarian) was 12.6 µM, the GI50 (OVCAR-4 ovarian) was 2.79 µM and the TGI (OVCAR-4 ovarian) was 27.1 µM. The GI50 (OVCAR-5 ovarian) was 2.27 µM, the TGI (OVCAR-5 ovarian) was 8.21 µM and the GI50 (OVCAR-8 ovarian) was 3.33 µM. The TGI (OVCAR-8 ovarian) was 16.3 µM, the GI50 (PC-3 prostate) was 1.75 µM and the TGI (PC-3 prostate) was 10.4 µM. The GI50 (RPMI-8226 leukemia) was 0.393 µM, the TGI (RPMI-8226 leukemia) was 4.03 µM and the GI50 (RXF 393 renal) was 1.94 µM. It also gave a TGI (RXF 393 renal) of 9.64 µM, a GI50 (SF-268 CNS) of 3.27 µM and a TGI (SF-268 CNS) of 14 µM. It also gave a GI50 (SF-295 CNS) of 2.62 µM, a TGI (SF-295 CNS) of 9.92 µM and a GI50 (SF-539 CNS) of 2.74 µM. For the same compound, the TGI (SF-539 CNS) was 12.1 µM, the GI50 (SK-MEL-2 melanoma) was 1.96 µM and the TGI (SK-MEL-2 melanoma) was 5.43 µM. For the same compound, the GI50 (SK-MEL-28 melanoma) was 1.54 µM, the TGI (SK-MEL-28 melanoma) was 12.7 µM and the GI50 (SK-MEL-5 melanoma) was 1.15 µM. For the same compound, the TGI (SK-MEL-5 melanoma) was 2.52 µM, the GI50 (SK-OV-3 ovarian) was 2.98 µM and the TGI (SK-OV-3 ovarian) was 8.21 µM. For the same compound, the GI50 (SN12C renal) was 2.4 µM, the TGI (SN12C renal) was 6.88 µM and the GI50 (SNB-19 CNS) was 2.01 µM. The TGI (SNB-19 CNS) was 7.95 µM, the GI50 (SNB-75 CNS) was 1.28 µM and the TGI (SNB-75 CNS) was 5.89 µM. The GI50 (SR leukemia) was 1.64 µM, the TGI (SR leukemia) was 12.4 µM and the GI50 (SW-620 colon) was 2.9 µM. The TGI (SW-620 colon) was 23.1 µM, the GI50 (T-47D breast) was 0.517 µM and the TGI (T-47D breast) was 11.2 µM. For the same compound, the GI50 (TK-10 renal) was 3.5 µM, the TGI (TK-10 renal) was 15.2 µM and the GI50 (U251 CNS) was 2.31 µM. For the same compound, the TGI (U251 CNS) was 13.6 µM, the GI50 (UACC-257 melanoma) was 1.95 µM and the TGI (UACC-257 melanoma) was 9.63 µM. The GI50 (UACC-62 melanoma) was 1.23 µM, the TGI (UACC-62 melanoma) was 5.97 µM and the GI50 (UO-31 renal) was 19 µM. The TGI (UO-31 renal) was 54.3 µM.
